Reference: ChEMBL document CHEMBL6120973 (J Med Chem, 2024)
pEC50, pIC50: −log10 of the molar value.

Legend:
[1] = test system: Human immunodeficiency virus 1; assay: Antiviral activity against HIV-1 harboring RT Y188L mutant infected in human MT4 cells assessed as protection against virus-induced cytopathic effect incubated for 5 days by MTT assay; format: functional, organism-based; settings: Human immunodeficiency virus 1, MT4, 120 h
[2] = Cytotoxicity against human MT4 cells assessed as reduction in cell viability measured after 5 days by MTT assay; settings: MT4 cells
[3] = test system: Human immunodeficiency virus 1; assay: Antiviral activity against HIV-1 harboring RT K103N mutant infected in human MT4 cells assessed as protection against virus-induced cytopathic effect incubated for 5 days by MTT assay; format: functional, organism-based; settings: Human immunodeficiency virus 1, MT4, 120 h
[4] = test system: Human immunodeficiency virus 1; assay: Antiviral activity against wildtype HIV-1 IIIB infected in human MT4 cells assessed as protection against virus-induced cytopathic effect incubated for 5 days by MTT assay; format: functional, organism-based; settings: Human immunodeficiency virus 1, IIIB, MT4, 120 h
[5] = test system: Human immunodeficiency virus 1; assay: Antiviral activity against HIV-1 harboring RT Y181C mutant infected in human MT4 cells assessed as protection against virus-induced cytopathic effect incubated for 5 days by MTT assay; format: functional, organism-based; settings: Human immunodeficiency virus 1, MT4, 120 h
[6] = Selectivity index, ratio of CC50 for human MT4 cells to EC50 for wild type HIV-1 IIIB infected in human MT4 cellS; settings: MT4 cells
[7] = test system: Human immunodeficiency virus 1; assay: Antiviral activity against HIV-1 harboring RT F227L/V106A double mutant infected in human MT4 cells assessed as protection against virus-induced cytopathic effect incubated for 5 days by MTT assay; format: functional, organism-based; settings: Human immunodeficiency virus 1, MT4, 120 h
[8] = test system: Human immunodeficiency virus 1; assay: Antiviral activity against HIV-1 harboring RT K103N/Y181C double mutant infected in human MT4 cells assessed as protection against virus-induced cytopathic effect incubated for 5 days by MTT assay; format: functional, organism-based; settings: Human immunodeficiency virus 1, MT4, 120 h
[9] = test system: Human immunodeficiency virus 1; assay: Antiviral activity against HIV-1 harboring RT L100I mutant infected in human MT4 cells assessed as protection against virus-induced cytopathic effect incubated for 5 days by MTT assay; format: functional, organism-based; settings: Human immunodeficiency virus 1, MT4, 120 h
[10] = target: Human immunodeficiency virus type 1 reverse transcriptase (Human immunodeficiency virus 1, UniProt Q72547); assay: Inhibition of recombinant wild type HIV-1 Reverse transcriptase incubated for 40 mins by Pico-green reagent based fluorescence analysis
[11] = test system: Human immunodeficiency virus 1; assay: Antiviral activity against HIV-1 harboring RT E138K mutant infected in human MT4 cells assessed as protection against virus-induced cytopathic effect incubated for 5 days by MTT assay; format: functional, organism-based; settings: Human immunodeficiency virus 1, MT4, 120 h

Work on Cc1cc(-c2ccncc2)cc(C)c1Nc1nc(Nc2ccc(C#N)cc2)ncc1-c1ccnc(Cl)c1 yielded a pEC50 [1] of 7.08, a CC50 at 120 h [2] of 158000 nM and a pEC50 [3] of 7.72. For the same compound, the pEC50 [4] was 8.22, the pEC50 [5] was 7.25 and the selectivity ratio [6] was 27300. It also gave a pEC50 [7] of 5.75, a pEC50 [8] of 6.22 and a pEC50 [9] of 7.26. For the same compound, the pIC50 [10] was 7.01 and the pEC50 [11] was 7.59.
With Cc1cc(-c2cnc(Nc3ccc(C#N)cc3)nc2Nc2c(C)cc(-c3ccncc3)cc2C)ccn1 the pEC50 [1] was 7.03, the CC50 at 120 h [2] was 14900 nM and the pEC50 [3] was 7.68. The pEC50 [4] was 8.05, the pEC50 [5] was 7.12 and the selectivity ratio [6] was 1630. It also gave a pEC50 [7] of 5.88, a pEC50 [8] of 6.03 and a pEC50 [9] of 7.15. For the same compound, the pIC50 [10] was 6.90 and the pEC50 [11] was 7.54.
Compound Cc1cc(-c2ccncc2)cc(C)c1Nc1nc(Nc2ccc(C#N)cc2)ncc1-c1ccc(F)nc1 has a pEC50 [1] of 7.12, a CC50 at 120 h [2] of 48400 nM and a pEC50 [3] of 8.05. It also gave a pEC50 [4] of 8.05, a pEC50 [5] of 7.32 and a selectivity ratio [6] of 5530. The pEC50 [7] was 5.93, the pEC50 [8] was 6.32 and the pEC50 [9] was 7.29. It also gave a pIC50 [10] of 7.07 and a pEC50 [11] of 7.85.
Cc1cc(-c2ccncc2)cc(C)c1Nc1nc(Nc2ccc(C#N)cc2)ncc1-c1ccsc1 showed a pEC50 [1] of 7.33, a CC50 at 120 h [2] of over 264000 nM and a pEC50 [3] of 8.10. It also gave a pEC50 [4] of 8.22, a pEC50 [5] of 7.39 and a selectivity ratio [6] of over 45200. The pEC50 [7] was 6.34, the pEC50 [8] was 6.59 and the pEC50 [9] was 7.47. It also gave a pIC50 [10] of 7.14 and a pEC50 [11] of 7.37.
For Cc1cc(-c2ccncc2)cc(C)c1Nc1nc(Nc2ccc(C#N)cc2)ncc1-c1ccc(N)nc1, the pEC50 [1] was 7.30, the CC50 at 120 h [2] was 4870 nM and the pEC50 [3] was 7.96. The pEC50 [4] was 8.10, the pEC50 [5] was 7.39 and the selectivity ratio [6] was 575. For the same compound, the pEC50 [7] was 5.94, the pEC50 [8] was 6.81 and the pEC50 [9] was 7.41. The pIC50 [10] was 7.03 and the pEC50 [11] was 7.96.
For COc1cc(-c2cnc(Nc3ccc(C#N)cc3)nc2Nc2c(C)cc(-c3ccncc3)cc2C)ccn1, the pEC50 [1] was 7.04, the CC50 at 120 h [2] was 59900 nM and the pEC50 [3] was 7.68. For the same compound, the pEC50 [4] was 8.05, the pEC50 [5] was 7.21 and the selectivity ratio [6] was 6750. It also gave a pEC50 [7] of 6.21, a pEC50 [8] of 6.23 and a pEC50 [9] of 7.29. The pIC50 [10] was 6.94 and the pEC50 [11] was 7.80.
Compound Cc1ccc(-c2cnc(Nc3ccc(C#N)cc3)nc2Nc2c(C)cc(-c3ccncc3)cc2C)cn1 has a pEC50 [1] of 7.27, a CC50 at 120 h [2] of 198000 nM and a pEC50 [3] of 8.22. The pEC50 [4] was 8.30, the pEC50 [5] was 7.33 and the selectivity ratio [6] was 38900. It also gave a pEC50 [7] of 6.30, a pEC50 [8] of 6.40 and a pEC50 [9] of 7.31. It also gave a pIC50 [10] of 6.88 and a pEC50 [11] of 8.15.
Work on Cc1cc(-c2ccncc2)cc(C)c1Nc1nc(Nc2ccc(C#N)cc2)ncc1-c1ccncc1 yielded a pEC50 [1] of 6.74, a CC50 at 120 h [2] of over 266000 nM and a pEC50 [3] of 7.64. For the same compound, the pEC50 [4] was 7.85, the pEC50 [5] was 6.86 and the selectivity ratio [6] was over 19100. It also gave a pEC50 [7] of 5.70, a pEC50 [8] of 5.93 and a pEC50 [9] of 7.04. It also gave a pIC50 [10] of 7.23 and a pEC50 [11] of 7.39.
Cc1cc(-c2ccncc2)cc(C)c1Nc1nc(Nc2ccc(C#N)cc2)ncc1-c1ccco1 gave a pEC50 [1] of 7.82, a CC50 at 120 h [2] of 7970 nM and a pEC50 [3] of 8.52. The pEC50 [4] was 8.40, the pEC50 [5] was 7.62 and the selectivity ratio [6] was 2060. The pEC50 [7] was 6.85, the pEC50 [8] was 6.99 and the pEC50 [9] was 8.15. It also gave a pIC50 [10] of 7.08 and a pEC50 [11] of 8.15.
Compound Cc1cc(-c2ccncc2)cc(C)c1Nc1nc(Nc2ccc(C#N)cc2)ncc1-c1ccnc(F)c1 has a pEC50 [1] of 7.35, a CC50 at 120 h [2] of over 256000 nM and a pEC50 [3] of 8.15. The pEC50 [4] was 8.10, the pEC50 [5] was 7.35 and the selectivity ratio [6] was over 31500. For the same compound, the pEC50 [7] was 5.86, the pEC50 [8] was 6.37 and the pEC50 [9] was 7.03. The pIC50 [10] was 6.95 and the pEC50 [11] was 8.10.
Compound Cc1cc(-c2ccncc2)cc(C)c1Nc1nc(Nc2ccc(C#N)cc2)ncc1-c1cccs1 has a pEC50 [1] of 7.54, a CC50 at 120 h [2] of over 264000 nM and a pEC50 [3] of 8.30. It also gave a pEC50 [4] of 7.96, a pEC50 [5] of 7.41 and a selectivity ratio [6] of over 24100. It also gave a pEC50 [7] of 6.87, a pEC50 [8] of 6.83 and a pEC50 [9] of 7.74. The pIC50 [10] was 7.12 and the pEC50 [11] was 7.92.
